From patent US20240197700A1, “Methods and Compositions for Treating Lysosomal Storage Disorders” (Sanford Health, priority 2021, published 2024)
“Also recorded” adds a separate entry of the source.

How the values were obtained:
[1] = system: NCL PNCs; assay: Autofluorescent storage material (ASM) in Batten disease primary neuronal cultures; assay type: cell-based, mouse
Method: Specific experimental details are included in figure legends. […] On DIV7, cells were treated with the following dyes: Hoechst 33342 (1:1000 dilution), LysoTrackerT™ Red DND-99 (1:10,000 dilution), fixed, and imaged. Mice were given vehicle or AF38469 (78.125 μg/ml, 3.125 μg/ml, 0.3125 μg/ml or 0.03125 μg/ml equating approximately to 250 μg/mouse/day, 10 μg/mouse/day, 1 μg/mouse/day, and […], respectively, given a mouse's daily water intake of approximately 3.2 ml per day) in drinking water beginning at wean. Body weight was measured bi-weekly, and a force actimeter test was performed on Cln2^R207X mice at 10 weeks of age. Body weight was measured every month for Cln3^Δex7/8 mice. At 11 and 16 weeks of age, respectively, Cln2^R207X and Cln3^Δex7/8 mice along with age matched wild type control mice were CO2 euthanized and intracardially perfused with PBS. Brains were collected and placed on a 1 mm sagittal brain block. Brains were sliced at the midline and 3 mm right of the midline. One hemisphere was fixed in 4% PFA and sectioned at 50 microns on a vibratome. Immunohistochemistry was performed on free-floating sections. For mitochondrial ATP synthase subunit C (SubC), glial fibrillary acidic protein (GFAP), and cluster of differentiation 68 (CD68) immunolabeling, primary antibodies included anti-SubC (Abcam, ab181243; 1:1000), anti-GFAP (Dako, Z0334; 1:5000), anti-CD68 (AbD Serotec, MCA1957; 1:2000), and secondary antibodies included anti-rabbit biotinylated (Vector Labs, BA-1000 1:1000) and anti-rat (Vector Labs, BA-9400 1:1000). Coverslips were mounted on slides using antifade-mounting media and were stored in the dark before imaging. Sections were imaged and analyzed using an Aperio Digital Pathology Slide Scanner (AT2) and associated software. Images were extracted from S1BF of the somatosensory cortex and the VPM/VPL of the thalamus, with multiple images taken of multiple tissues from each animal.
(§1) • An increase in percent area or total area of positive autofluorescent storage material (ASM) signal in untreated NCL MEFs or PNCs relative to age-matched, wild type MEFs or PNCs is considered an increase in the accumulation of autofluorescent storage material, reflecting disease-related lysosomal dysfunction. • A decrease in percent area or total area of positive autofluorescent storage material signal in AF38469 treated MEFs and PNCs relative to age-matched, vehicle treated MEFs and PNCs is considered a reduction in the accumulation of autofluorescent storage material and thus a decrease in disease-related lysosomal dysfunction. • LysoTracker™ is an acidophilic dye that labels lysosomes and accumulation increases with an increase in lysosome size or number. Cell and mouse models of lysosomal storage disorders often have increased accumulation of lysosomes and therefore have a stronger LysoTracker™ signal. […]

[2] = system: NCL MEFs; assay: Autofluorescent storage material (ASM) in Batten disease mouse embryonic fibroblasts; assay type: cell-based
Method: Specific experimental details are included in figure legends. In general, after collection and preparation, MEFs and PNCs were dosed with vehicle or AF38469 (40 nM, 400 nM. or 4 μM) on DIV3 and DIV5. On DIV7, cells were treated with the following dyes: Hoechst 33342 (1:1000 dilution), LysoTrackerT™ Red DND-99 (1:10,000 dilution), fixed, and imaged. Mice were given vehicle or AF38469 (78.125 μg/ml, 3.125 μg/ml, 0.3125 μg/ml or 0.03125 μg/ml equating approximately to 250 μg/mouse/day, 10 μg/mouse/day, 1 μg/mouse/day, and […], respectively, given a mouse's daily water intake of approximately 3.2 ml per day) in drinking water beginning at wean. Body weight was measured bi-weekly, and a force actimeter test was performed on Cln2^R207X mice at 10 weeks of age. Body weight was measured every month for Cln3^Δex7/8 mice. At 11 and 16 weeks of age, respectively, Cln2^R207X and Cln3^Δex7/8 mice along with age matched wild type control mice were CO2 euthanized and intracardially perfused with PBS. Brains were collected and placed on a 1 mm sagittal brain block. Brains were sliced at the midline and 3 mm right of the midline. One hemisphere was fixed in 4% PFA and sectioned at 50 microns on a vibratome. Immunohistochemistry was performed on free-floating sections. For mitochondrial ATP synthase subunit C (SubC), glial fibrillary acidic protein (GFAP), and cluster of differentiation 68 (CD68) immunolabeling, primary antibodies included anti-SubC (Abcam, ab181243; 1:1000), anti-GFAP (Dako, Z0334; 1:5000), anti-CD68 (AbD Serotec, MCA1957; 1:2000), and secondary antibodies included anti-rabbit biotinylated (Vector Labs, BA-1000 1:1000) and anti-rat (Vector Labs, BA-9400 1:1000). Coverslips were mounted on slides using antifade-mounting media and were stored in the dark before imaging. Sections were imaged and analyzed using an Aperio Digital Pathology Slide Scanner (AT2) and associated software. Images were extracted from S1BF of the somatosensory cortex and the VPM/VPL of the thalamus, with multiple images taken of multiple tissues from each animal.
as §1

Compound: Cc1cccc(NC(=O)c2ccc(C(F)(F)F)cc2C(=O)O)n1 [AF38469, 2-((6-methylpyridin-2-yl)carbamoyl)-5-(trifluoromethyl)benzoic acid]
- accumulation of autofluorescent storage material (ASM) ([1]; 40 nM, 400 nM, 4 μM, Cln1^R151X, Cln2^R207X, Cln3^Δex7/8, Cln6^nclf PNCs, DIV7): significantly reduced
- ASM levels ([1]; Cln8^mnd PNCs, DIV7): significantly increased
- accumulation of autofluorescent storage material (ASM) ([2]; 40 nM, 400 nM, 4 μM, Cln1^R151X, Cln2^R207X, Cln3^Δex7/8, Cln6^nclf, Cln8^mnd MEFs, DIV7): significantly reduced
- accumulation of autofluorescent storage material (ASM) ([2]; Cln11^−/− MEFs, DIV7): did not have an impact

Compound: CC[C@H](C)[C@H](N)C(=O)NCCN1CCOCC1 [LM11A-31, N-[2-(morpholin-4-yl)ethyl]-L-isoleucinamide]
- accumulation of autofluorescent storage material (ASM) ([1]; LM11A-31 100 nM, Cln6^nclf and Cln8^mnd PNCs): significantly reduced
- accumulation of autofluorescent storage material (ASM) ([1]; LM11A-31 1 μM, Cln1^R151X PNCs): significantly reduced
- accumulation of autofluorescent storage material (ASM) ([1]; LM11A-31 1 μM, Cln3^Δex7/8 PNCs): significantly reduced
- accumulation of autofluorescent storage material (ASM) ([1]; LM11A-31 all treatment groups, Cln2^R207X PNCs): significantly reduced
- ASM ([1]; LM11A-31 varying doses, neurons of all tested NCLs): significantly reduced
- accumulation of autofluorescent storage material (ASM) ([2]; LM11A-31 100 nM, 1 μM, 10 μM, Cln1^R151X, Cln6^nclf, Cln8^mnd MEFs, DIV7): did not reduce
- accumulation of autofluorescent storage material (ASM) ([2]; LM11A-31 (mid to high doses), Cln2^R207X and Cln3^Δex4/8 (so in the source) MEFs): trended towards reductions; also recorded: decreasing trend

Compound: semaglutide
- autofluorescent storage material (ASM) signal ([1]; semaglutide 10 nM, 100 nM, 1 μM, Cln2^R207X and Cln6^nclf PNCs): significantly reduced
- ASM levels ([1]; semaglutide 10 nM, 100 nM, Cln3^Δex7/8 PNCs): significantly reduced
- ASM levels ([1]; semaglutide 10 nM, 1 μM, Cln1^R151X PNCs): significantly reduced
- ASM levels ([1]; semaglutide 10 nM, 1 μM, Cln8^mnd PNCs): significantly reduced
- ASM levels ([1]; semaglutide 100 nM, Cln1^R151X PNCs): had no impact
- ASM levels ([1]; semaglutide 100 nM, Cln8^mnd PNCs): significantly elevated
- ASM levels ([1]; semaglutide 1 μM, Cln3^Δex7/8 PNCs): significantly elevated
- accumulation of autofluorescent storage material (ASM) ([2]; semaglutide 10 nM, 100 nM, 1 μM, Cln1^R151X, Cln2^R207X, Cln3^Δex7/8, Cln6^nclf, Cln8^mnd MEFs): had no impact
